Activity calls are given as the source filed them. The rule behind the calls is not given here. Bounds are passed on as bounds.

The first assay deals with Mycobacterium sp. The assay can be described thus: Antimycobacterial activity against Mycobacterium sp. It is filed as functional, organism-based.
Conditions: not given
For `Fc1cccc(Cl)c1-c1nc2ccccc2c2c1[nH]c1ccccc12`, the outcome was inactive.

Turning to `C=CCOc1ccc(-c2nc3ccccc3c3c2[nH]c2ccccc23)cc1`, the result was inactive.

As to `c1ccc2nc(-c3nc4ccccc4c4c3[nH]c3ccccc34)ccc2c1`, the outcome was inactive.

Regarding `COc1ccc(-c2nc3ccccc3c3c2[nH]c2ccccc23)cc1`, the outcome was inactive.

System in another assay: not listed separately
The assay can be described thus: Cytotoxicity against mouse NIH/3T3 cells after 48 hrs by SRB method. It is filed as cell-based. The note with it: NIH3T3, 48 h. (In general: In SRB staining, fixed cells bind dye roughly in proportion to their protein.)
For orientation: IC50 means the concentration that gives 50% inhibition. Higher therefore signals lower potency. For the compound `Fc1cccc(Cl)c1-c1nc2ccccc2c2c1[nH]c1ccccc12`, the IC50 turned out to be 71.1 µM.

In turn, `C=CCOc1ccc(-c2nc3ccccc3c3c2[nH]c2ccccc23)cc1` came in with an IC50 above 200 µM.

Consider `c1ccc2nc(-c3nc4ccccc4c4c3[nH]c3ccccc34)ccc2c1`, for which the IC50 was above 200 µM.

As for `COc1ccc(-c2nc3ccccc3c3c2[nH]c2ccccc23)cc1`, inhibition was half-maximal at 114 µM (IC50).

For another assay, the system named is HeLa. The assay can be described thus: Cytotoxicity against human HeLa cells after 48 hrs by SRB method. It is filed as functional, cell-based.
Conditions: not given
`Fc1cccc(Cl)c1-c1nc2ccccc2c2c1[nH]c1ccccc12` showed an IC50 of 22.9 µM.

`C=CCOc1ccc(-c2nc3ccccc3c3c2[nH]c2ccccc23)cc1` came in with an IC50 of 27.5 µM.

In turn, `c1ccc2nc(-c3nc4ccccc4c4c3[nH]c3ccccc34)ccc2c1` displayed an IC50 of 69.9 µM.

Turning to `COc1ccc(-c2nc3ccccc3c3c2[nH]c2ccccc23)cc1`, the IC50 amounted to 36.1 µM.

The subject of the next assay is DU-145. The assay can be described thus: Cytotoxicity against human DU145 cells after 48 hrs by SRB method. It is filed as functional, cell-based. The conditions noted are these: DU-145, 48 h.
`Fc1cccc(Cl)c1-c1nc2ccccc2c2c1[nH]c1ccccc12` yielded an IC50 of 14 µM.

Consider `C=CCOc1ccc(-c2nc3ccccc3c3c2[nH]c2ccccc23)cc1`, for which 23.6 µM corresponded to half-maximal inhibition (IC50).

For `c1ccc2nc(-c3nc4ccccc4c4c3[nH]c3ccccc34)ccc2c1`, the half-inhibitory concentration (IC50) is 41.5 µM.

`COc1ccc(-c2nc3ccccc3c3c2[nH]c2ccccc23)cc1` gave an IC50 of 62 µM.

A further assay relates to MCF7. Description: Cytotoxicity against human MCF7 cells after 48 hrs by SRB method. It is filed as functional, cell-based. The conditions noted are these: MCF7, 48 h.
`Fc1cccc(Cl)c1-c1nc2ccccc2c2c1[nH]c1ccccc12` returned an IC50 of 13.3 µM.

In turn, `C=CCOc1ccc(-c2nc3ccccc3c3c2[nH]c2ccccc23)cc1` registered an IC50 of 11.9 µM.

Regarding `c1ccc2nc(-c3nc4ccccc4c4c3[nH]c3ccccc34)ccc2c1`, the IC50 came to 52.6 µM.

With `COc1ccc(-c2nc3ccccc3c3c2[nH]c2ccccc23)cc1`, half-maximal inhibition (IC50) required 27.8 µM.

The subject of a further assay is A549. The assay can be described thus: Cytotoxicity against human A549 cells after 48 hrs by SRB method. The note with it: A549, 48 h. It is filed as functional, cell-based.
Consider `Fc1cccc(Cl)c1-c1nc2ccccc2c2c1[nH]c1ccccc12`, for which the 50% inhibitory concentration (IC50) came out at 6.35 µM.

`C=CCOc1ccc(-c2nc3ccccc3c3c2[nH]c2ccccc23)cc1`: the IC50 turned out to be 6.22 µM.

The compound `c1ccc2nc(-c3nc4ccccc4c4c3[nH]c3ccccc34)ccc2c1` came in with an IC50 of 68.4 µM.

Consider `COc1ccc(-c2nc3ccccc3c3c2[nH]c2ccccc23)cc1`, for which the IC50 is 23.8 µM.

Values taken from ChEMBL document CHEMBL3421548, “PMA-SiO2 catalyzed synthesis of indolo[2,3-c]quinolines as potent anti cancer agents” (Bioorg Med Chem Lett, 2015).
